Data from patent publication US7294635B2 (Portola Pharmaceuticals, Inc., priority 2003, dated 2007).

System: ADP-induced human platelet aggregation
Assay: Inhibition of ADP-mediated platelet aggregation in vitro using platelet-rich plasma (PRP assay)
Type: cell-based
Settings: 5 min; human platelet-rich plasma, 2 μM ADP, 96-well microtiter, OD 650 nm at 5 min; read-out: Activity in the PRP assay
Experimental: This Example Provides an Assay for the Inhibition of ADP-Mediated Platelet Aggregation In Vitro Using Platelet-Rich Plasma (PRP)
Platelet-rich plasma (PRP) is prepared by centrifugation at 160×g for 20 minutes at room temperature. PRP is collected, and the platelet concentration is determined using a Coulter counter or hemocytometer (platelet concentration should be 2-4×10^8 platelets per mL).
Inhibition of ADP-dependent aggregation is preferably determined in 96-well flat-bottom microtiter plates using a microtiter plate shaker and plate reader similar to the procedure described by Frantantoni et al., Am. J. Clin. Pathol. […] All steps are performed at room temperature. The total reaction volume of 0.2 mL/well includes: PRP (˜6×10^7 total platelets in the presence of plasma), serial dilutions of test compounds (buffer for control wells) in 0.6% DMSO. After about 5 minutes preincubation at room temperature, ADP is added to a final concentration of 2 μM which induces submaximal aggregation. Buffer is added instead of ADP to one set of control wells (ADP-control). The OD of the samples is then determined at 650 nm using a microtiter plate reader (Softmax, Molecular Devices, Menlo Park, Calif.) resulting in the 0 minute reading. The plates are then agitated for 5 min on a microtiter plate shaker and the 5 minute reading is obtained in the plate reader. Aggregation is calculated from the decrease of OD at 650 nm at t=5 minutes compared to t=0 minutes and is expressed as % of the decrease in the ADP control samples after correcting for changes in the unaggregated control samples.

Row | Structure (SMILES) | IC50 [µM]
1 | CNc1cc2ccn(-c3cnc(NC(=O)NS(=O)(=O)c4ccc(Cl)s4)c(C)c3)c(=O)c2cc1F [Example 60, 5-chloro-N-[({5-[7-fluoro-6-(methylamino)-1-oxoisoquinolin-2(1H)-yl]-3-methylpyridin-2-yl}amino)carbonyl]thiophene-2-sulfonamide] | < 10
2 | CNc1cc2ccn(-c3cnc(NC(=O)NS(=O)(=O)c4ccc(Cl)s4)nc3)c(=O)c2cc1F [Example 61, 5-chloro-N-[({5-[7-fluoro-6-(methylamino)-1-oxoisoquinolin-2(1H)-yl]pyrimidin-2-yl}amino)carbonyl]thiophene-2-sulfonamide] | < 10
3 | CNc1cc2ccn(-c3ccc(NC(=O)NS(=O)(=O)c4ccc(Cl)s4)cc3COC(C)=O)c(=O)c2cc1F [Example 62, 5-[({[(5-chlorothien-2-yl)sulfonyl]amino}carbonyl)amino]-2-[7-fluoro-6-(methylamino)-1-oxoisoquinolin-2(1H)-yl]benzyl acetate] | 10 to 30
4 | CNc1cc2ccn(-c3ccc(NC(=O)NS(=O)(=O)c4ccc(Cl)s4)cc3CO)c(=O)c2cc1F [Example 63, 5-chloro-N-({[4-[7-fluoro-6-(methylamino)-1-oxoisoquinolin-2(1H)-yl]-3-(hydroxymethyl)phenyl]amino}carbonyl)thiophene-2-sulfonamide] | < 10
5 | CCOC(=O)c1cc(NC(=O)NS(=O)(=O)c2ccc(Cl)s2)ccc1-n1ccc2cc(NC)c(F)cc2c1=O [Example 65, ethyl 5-[({[(5-chlorothien-2-yl)sulfonyl]amino}carbonyl)amino]-2-[7-fluoro-6-(methylamino)-1-oxoisoquinolin-2(1H)-yl]benzoate] | 10 to 30
6 | CNc1cc2ccn(-c3ccc(NC(=O)NS(=O)(=O)c4ccc(Cl)s4)cc3C#N)c(=O)c2cc1F [Example 67, 5-chloro-N-[({3-cyano-4-[7-fluoro-6-(methylamino)-1-oxoisoquinolin-2(1H)-yl]phenyl}amino)carbonyl]thiophene-2-sulfonamide] | 10 to 30
7 | CNc1cc2ccn(-c3ccc(NC(=O)NS(=O)(=O)c4ccc(Cl)s4)cc3C(N)=O)c(=O)c2cc1F [Example 68, 5-[({[(5-chlorothien-2-yl)sulfonyl]amino}carbonyl)amino]-2-[7-fluoro-6-(methylamino)-1-oxoisoquinolin-2(1H)-yl]benzamide] | 10 to 30
8 | CNc1cc2ccn(-c3ccc(NC(=O)NS(=O)(=O)c4ccc(Cl)s4)cc3C(C)=O)c(=O)c2cc1F [Example 70, N-[({3-acetyl-4-[7-fluoro-6-(methylamino)-1-oxoisoquinolin-2(1H)-yl]phenyl}amino)carbonyl]-5-chlorothiophene-2-sulfonamide] | 10 to 30
9 | CCc1cc(NC(=O)NS(=O)(=O)c2ccc(Cl)s2)ccc1-n1ccc2cc(NC)c(F)cc2c1=O [Example 73, 5-chloro-N-[({3-ethyl-4-[7-fluoro-6-(methylamino)-1-oxoisoquinolin-2(1H)-yl]phenyl}amino)carbonyl]thiophene-2-sulfonamide] | 10 to 30
10 | CNc1cc2ccn(-c3ccc(NC(=O)NS(=O)(=O)c4ccc(Cl)s4)cc3C(C)O)c(=O)c2cc1F (stereo not drawn) [Example 74, 5-chloro-N-({[4-[7-fluoro-6-(methylamino)-1-oxoisoquinolin-2(1H)-yl]-3-(1-hydroxyethyl)phenyl]amino}carbonyl)thiophene-2-sulfonamide] | > 30
11 | CNc1cc2ccn(-c3ccc(NC(=O)NS(=O)(=O)c4ccc(Cl)s4)c(OC)c3)c(=O)c2cc1F [Example 75, 5-chloro-N-[({4-[7-fluoro-6-(methylamino)-1-oxoisoquinolin-2(1H)-yl]-2-methoxyphenyl}amino)carbonyl]thiophene-2-sulfonamide] | < 10
12 | CNc1cc2ccn(-c3ccc(NC(=O)NS(=O)(=O)c4ccc(Cl)s4)c(OCOC)c3)c(=O)c2cc1F [Example 76, 5-chloro-N-({[4-[7-fluoro-6-(methylamino)-1-oxoisoquinolin-2(1H)-yl]-2-(methoxymethoxy)phenyl]amino}carbonyl)thiophene-2-sulfonamide] | < 10
13 | CNc1cc2ccn(-c3ccc(NC(=O)NS(=O)(=O)c4ccc(Cl)s4)c(O)c3)c(=O)c2cc1F [Example 77, 5-chloro-N-[({4-[7-fluoro-6-(methylamino)-1-oxoisoquinolin-2(1H)-yl]-2-hydroxyphenyl}amino)carbonyl]thiophene-2-sulfonamide] | < 10
14 | CNc1cc2ccn(-c3ccc(NC(=O)NS(=O)(=O)c4ccc(Cl)s4)c(OCc4ccccc4)c3)c(=O)c2cc1F [Example 79, N-[({2-(benzyloxy)-4-[7-fluoro-6-(methylamino)-1-oxoisoquinolin-2(1H)-yl]phenyl}amino)carbonyl]-5-chlorothiophene-2-sulfonamide] | > 30
15 | CCCCNc1cc(-n2ccc3cc(NC)c(F)cc3c2=O)ccc1NC(=O)NS(=O)(=O)c1ccc(Cl)s1 [Example 80, N-[({2-(butylamino)-4-[7-fluoro-6-(methylamino)-1-oxoisoquinolin-2(1H)-yl]phenyl}amino)carbonyl]-5-chlorothiophene-2-sulfonamide] | > 30
16 | CCc1cc(-n2ccc3cc(NC)c(F)cc3c2=O)ccc1NC(=O)NS(=O)(=O)c1ccc(Cl)s1 [Example 81, 5-chloro-N-[({2-ethyl-4-[7-fluoro-6-(methylamino)-1-oxoisoquinolin-2(1H)-yl]phenyl}amino)carbonyl]thiophene-2-sulfonamide] | < 10
17 | CNc1cc2ccn(-c3ccc(NC(=O)NS(=O)(=O)c4ccc(Cl)s4)c(OCCOC(C)=O)c3)c(=O)c2cc1F [Example 82, 2-{2-[({[(5-chlorothien-2-yl)sulfonyl]amino}carbonyl)amino]-5-[7-fluoro-6-(methylamino)-1-oxoisoquinolin-2(1H)-yl]phenoxy}ethyl acetate] | 10 to 30
18 | CNc1cc2ccn(-c3ccc(NC(=O)NS(=O)(=O)c4ccc(Cl)s4)c(OCCO)c3)c(=O)c2cc1F [Example 83, 5-chloro-N-({[4-[7-fluoro-6-(methylamino)-1-oxoisoquinolin-2(1H)-yl]-2-(2-hydroxyethoxy)phenyl]amino}carbonyl)thiophene-2-sulfonamide] | < 10
19 | CNc1cc2ccn(-c3ccc(NC(=O)NS(=O)(=O)c4ccc(Cl)s4)c(OC(C)C)c3)c(=O)c2cc1F [Example 84, 5-chloro-N-[({4-[7-fluoro-6-(methylamino)-1-oxoisoquinolin-2(1H)-yl]-2-isopropoxyphenyl}amino)carbonyl]thiophene-2-sulfonamide] | 10 to 30
20 | CNc1cc2ccn(-c3ccc(NC(=O)NS(=O)(=O)c4ccc(Cl)s4)c(C(F)F)c3)c(=O)c2cc1F [Example 85, 5-chloro-N-[({2-(difluoromethyl)-4-[7-fluoro-6-(methylamino)-1-oxoisoquinolin-2(1H)-yl]phenyl}amino)carbonyl]thiophene-2-sulfonamide] | < 10
21 | CNc1cc2ccn(-c3ccc(NC(=O)NS(=O)(=O)c4ccc(Cl)s4)c(OCC4CC4)c3)c(=O)c2cc1F [Example 86, 5-chloro-N-[({2-(cyclopropylmethoxy)-4-[7-fluoro-6-(methylamino)-1-oxoisoquinolin-2(1H)-yl]phenyl}amino)carbonyl]thiophene-2-sulfonamide] | < 10
22 | CNc1cc2ccn(-c3ccc(NC(=O)NS(=O)(=O)c4ccc(Cl)s4)c(OC(F)(F)F)c3)c(=O)c2cc1F [Example 87, 5-chloro-N-({[4-[7-fluoro-6-(methylamino)-1-oxoisoquinolin-2(1H)-yl]-2-(trifluoromethoxy)phenyl]amino}carbonyl)thiophene-2-sulfonamide] | < 10
23 | CNc1cc2ccn(-c3ccc(NC(=O)NS(=O)(=O)c4ccc(Cl)s4)c(C(C)=O)c3)c(=O)c2cc1F [Example 88, N-[({2-acetyl-4-[7-fluoro-6-(methylamino)-1-oxoisoquinolin-2(1H)-yl]phenyl}amino)carbonyl]-5-chlorothiophene-2-sulfonamide] | < 10
24 | CNc1cc2ccn(-c3ccc(NC(=O)NS(=O)(=O)c4ccc(Cl)s4)c(OCC(F)(F)F)c3)c(=O)c2cc1F [Example 89, 5-chloro-N-({[4-[7-fluoro-6-(methylamino)-1-oxoisoquinolin-2(1H)-yl]-2-(2,2,2-trifluoroethoxy)phenyl]amino}carbonyl)thiophene-2-sulfonamide] | < 10
25 | CCOc1cc(-n2ccc3cc(NC)c(F)cc3c2=O)ccc1NC(=O)NS(=O)(=O)c1ccc(Cl)s1 [Example 90, 5-chloro-N-[({2-ethoxy-4-[7-fluoro-6-(methylamino)-1-oxoisoquinolin-2(1H)-yl]phenyl}amino)carbonyl]thiophene-2-sulfonamide] | < 10
26 | CNc1cc2ccn(-c3ccc(NC(=O)NS(=O)(=O)c4ccc(Cl)s4)c(OCCOC)c3)c(=O)c2cc1F [Example 91, 5-chloro-N-({[4-[7-fluoro-6-(methylamino)-1-oxoisoquinolin-2(1H)-yl]-2-(2-methoxyethoxy)phenyl]amino}carbonyl)thiophene-2-sulfonamide] | < 10
27 | CNc1cc2ccn(-c3ccc(NC(=O)NS(=O)(=O)c4ccc(Cl)s4)c(C(C)C)c3)c(=O)c2cc1F [Example 92, 5-chloro-N-[({4-[7-fluoro-6-(methylamino)-1-oxoisoquinolin-2(1H)-yl]-2-isopropylphenyl}amino)carbonyl]thiophene-2-sulfonamide] | 10 to 30
